Measurements published in ChEMBL document CHEMBL5252592, “Design, synthesis, and biological activity evaluation of novel tubulin polymerization inhibitors based on pyrimidine ring skeletons” (Bioorg Med Chem Lett, 2023).
The source made the active and inactive calls. No cut-off for these calls is given here.

What was measured:
HepG2 [1] = assay: Induction of apoptosis in human HepG2 cells assessed as necrotic cells at 200 nM incubated for 48 hrs by AnnexinV-FITC/PI staining based flow cytometric analysis (reference value: 2.82%); assay type: functional
HepG2 [2] = assay: Induction of apoptosis in human HepG2 cells assessed as necrotic cells at 50 nM incubated for 48 hrs by AnnexinV-FITC/PI staining based flow cytometric analysis (reference value: 2.82%); assay type: functional
HepG2 [3] = assay: Induction of cell cycle arrest in human HepG2 cells assessed as decrease in G1 phase cells at 100 nM incubated for 24 hrs by PI staining based flow cytometric analysis (reference value: 73.85%); assay type: functional; design: scale not given: the % may be the effect or the level left
HepG2 [4] = assay: Induction of apoptosis in human HepG2 cells assessed as viable cells at 100 nM incubated for 48 hrs by AnnexinV-FITC/PI staining based flow cytometric analysis (reference value: 92.0%); assay type: functional; details: read-out: Activity
HepG2 [5] = assay: Induction of apoptosis in human HepG2 cells assessed as viable cells at 200 nM incubated for 48 hrs by AnnexinV-FITC/PI staining based flow cytometric analysis (reference value: 92.0%); assay type: functional; details: read-out: Activity
HepG2 [6] = assay: Induction of cell cycle arrest in human HepG2 cells assessed as increase in G2 phase cells at 200 nM incubated for 24 hrs by PI staining based flow cytometric analysis (reference value: 13.40%); assay type: functional
HepG2 [7] = assay: Induction of apoptosis in human HepG2 cells assessed as viable cells at 50 nM incubated for 48 hrs by AnnexinV-FITC/PI staining based flow cytometric analysis (reference value: 92.0%); assay type: functional; details: read-out: Activity
HepG2 [8] = assay: Induction of apoptosis in human HepG2 cells assessed as total apoptotic cells at 200 nM incubated for 48 hrs by AnnexinV-FITC/PI staining based flow cytometric analysis (reference value: 5.16%); assay type: functional
U-937 = assay: Antiproliferative activity against human U-937 cells assessed as inhibition of cell growth; assay type: functional, cell-based
HepG2 [9] = assay: Induction of apoptosis in human HepG2 cells assessed as early apoptotic cells at 100 nM incubated for 48 hrs by AnnexinV-FITC/PI staining based flow cytometric analysis (reference value: 1.83%); assay type: functional
HepG2 [10] = assay: Induction of cell cycle arrest in human HepG2 cells assessed as decrease in S phase cells at 100 nM incubated for 24 hrs by PI staining based flow cytometric analysis (reference value: 12.75%); assay type: functional; design: scale not given: the % may be the effect or the level left
HepG2 [11] = assay: Induction of apoptosis in human HepG2 cells assessed as total apoptotic cells at 100 nM incubated for 48 hrs by AnnexinV-FITC/PI staining based flow cytometric analysis (reference value: 5.16%); assay type: functional
A549 = assay: Antiproliferative activity against human A549 cells assessed as inhibition of cell growth; assay type: functional, cell-based
Tubulin (Homo sapiens) [12] = target: T1, Tubulin (Homo sapiens) (UniProt P68371+Q9H4B7+P0DPH7+P68366+Q13509+Q71U36+P04350+Q3ZCM7+P07437+P68363+Q9BQE3+Q6PEY2+Q13885+Q9BVA1+Q9BUF5); assay: Disruption of microtubule organization in human HepG2 cells assessed as cell shrinkage at 50 to 200 nM by immunofluorescence staining based laser confocal microscopic analysis; details: dose 50-200 nM
HepG2 [13] = assay: Induction of cell cycle arrest in human HepG2 cells assessed as decrease in G1 phase cells at 200 nM incubated for 24 hrs by PI staining based flow cytometric analysis (reference value: 73.85%); assay type: functional; design: scale not given: the % may be the effect or the level left
HepG2 [14] = assay: Induction of cell cycle arrest in human HepG2 cells assessed as increase in G2 phase cells at 50 nM incubated for 24 hrs by PI staining based flow cytometric analysis (reference value: 13.40%); assay type: functional
HepG2 [15] = assay: Antiproliferative activity against human HepG2 cells assessed as inhibition of cell growth; assay type: functional, cell-based
HepG2 [16] = assay: Induction of apoptosis in human HepG2 cells assessed as late apoptotic cells at 200 nM incubated for 48 hrs by AnnexinV-FITC/PI staining based flow cytometric analysis (reference value: 3.33%); assay type: functional
HepG2 [17] = assay: Antiinvasive activity in human HepG2 cells assessed as decrease in cells invading inferior chamber by transwell assay; assay type: functional, cell-based; details: dose 50-200 nM
HepG2 [18] = assay: Antimigratory activity in human HepG2 cells assessed as reduction in wound closure by scratch assay; assay type: functional, cell-based; details: dose 50-200 nM
HepG2 [19] = assay: Induction of G2/M phase cell cycle arrest in human HepG2 cells assessed as increase in P21 protein expression by Western blot analysis; assay type: functional, cell-based; details: dose 50-200 nM
HepG2 [20] = assay: Induction of apoptosis in human HepG2 cells assessed as late apoptotic cells at 50 nM incubated for 48 hrs by AnnexinV-FITC/PI staining based flow cytometric analysis (reference value: 3.33%); assay type: functional
HepG2 [21] = assay: Induction of cell cycle arrest in human HepG2 cells assessed as decrease in G1 phase cells at 50 nM incubated for 24 hrs by PI staining based flow cytometric analysis (reference value: 73.85%); assay type: functional; design: scale not given: the % may be the effect or the level left
HepG2 [22] = assay: Induction of apoptosis in human HepG2 cells assessed as necrotic cells at 100 nM incubated for 48 hrs by AnnexinV-FITC/PI staining based flow cytometric analysis (reference value: 2.82%); assay type: functional
HepG2 [23] = assay: Induction of G2/M phase cell cycle arrest in human HepG2 cells assessed as decrease in cyclinB1 protein expression by Western blot analysis; assay type: functional, cell-based; details: dose 50-200 nM
HepG2 [24] = assay: Induction of apoptosis in human HepG2 cells assessed as early apoptotic cells at 200 nM incubated for 48 hrs by AnnexinV-FITC/PI staining based flow cytometric analysis (reference value: 1.83%); assay type: functional
Y79 = assay: Antiproliferative activity against human Y79 cells assessed as inhibition of cell growth; assay type: functional, cell-based
HepG2 [25] = assay: Induction of apoptosis in human HepG2 cells assessed as total apoptotic cells at 50 nM incubated for 48 hrs by AnnexinV-FITC/PI staining based flow cytometric analysis (reference value: 5.16%); assay type: functional
HepG2 [26] = assay: Induction of cell cycle arrest in human HepG2 cells assessed as decrease in S phase cells at 200 nM incubated for 24 hrs by PI staining based flow cytometric analysis (reference value: 12.75%); assay type: functional; design: scale not given: the % may be the effect or the level left
HepG2 [27] = assay: Induction of cell cycle arrest in human HepG2 cells assessed as increase in G2 phase cells at 100 nM incubated for 24 hrs by PI staining based flow cytometric analysis (reference value: 13.40%); assay type: functional
HepG2 [28] = assay: Induction of apoptosis in human HepG2 cells assessed as early apoptotic cells at 50 nM incubated for 48 hrs by AnnexinV-FITC/PI staining based flow cytometric analysis (reference value: 1.83%); assay type: functional
HepG2 [29] = assay: Induction of apoptosis in human HepG2 cells assessed as late apoptotic cells at 100 nM incubated for 48 hrs by AnnexinV-FITC/PI staining based flow cytometric analysis (reference value: 3.33%); assay type: functional
Tubulin (Homo sapiens) [30] = target: T1, Tubulin (Homo sapiens); assay: Inhibition of tubulin polymerization (unknown origin) assessed as decrease in fluorescence intensity at 2 uM; assay type: protein-complex assay; details: time 1000-2000 min, TDE = time-dependent effect
Tubulin (Homo sapiens) [31] = target: T1, Tubulin (Homo sapiens); assay: Disruption of microtubule organization in human HepG2 cells assessed as diffused intracellular microtubules at 50 to 200 nM by immunofluorescence staining based laser confocal microscopic analysis; assay type: cell-based; details: dose 50-200 nM
Tubulin (Homo sapiens) [32] = target: T1, Tubulin (Homo sapiens); assay: Disruption of microtubule organization in human HepG2 cells assessed as round or polygonal shaped cells at 50 to 200 nM by immunofluorescence staining based laser confocal microscopic analysis; assay type: cell-based; details: dose 50-200 nM
HepG2 [33] = assay: Induction of cell cycle arrest in human HepG2 cells assessed as decrease in S phase cells at 50 nM incubated for 24 hrs by PI staining based flow cytometric analysis (reference value: 12.75%); assay type: functional; design: scale not given: the % may be the effect or the level left

## COc1cc(Nc2nccc(-c3ccc4c(c3)OCCO4)n2)cc(OC)c1OC
HepG2 [1]
  Activity: 2.13%
HepG2 [2]
  Activity: 0.12%
HepG2 [3]
  Activity: 65.52%
HepG2 [4]
  viability at 0.1 µM: 57.9%
HepG2 [5]
  viability at 0.2 µM: 63.3%
HepG2 [6]
  Activity: 35.99%
HepG2 [7]
  viability at 0.05 µM: 61.5%
HepG2 [8]
  Activity: 43.6%
U-937
  IC50: 70 nM
HepG2 [9]
  Activity: 17.9%
HepG2 [10]
  Activity: 6.95%
HepG2 [11]
  Activity: 41.3%
A549
  IC50: 800 nM
Tubulin (Homo sapiens) [12]
  Activity: Active
HepG2 [13]
  Activity: 63.13%
HepG2 [14]
  Activity: 26.08%
HepG2 [15]
  IC50: 110 nM
HepG2 [16]
  Activity: 33.7%
HepG2 [17]
  Activity: Dose-Dependent Effect
HepG2 [18]
  Activity: Dose-Dependent Effect
HepG2 [19]
  Activity: Dose-Dependent Effect
HepG2 [20]
  Activity: 16.9%
HepG2 [21]
  Activity: 69.07%
HepG2 [22]
  Activity: 0.82%
HepG2 [23]
  Activity: Dose-Dependent Effect
HepG2 [24]
  Activity: 10.9%
Y79
  IC50: 100 nM
HepG2 [25]
  Activity: 38.4%
HepG2 [26]
  Activity: 0.88%
HepG2 [27]
  Activity: 27.53%
HepG2 [28]
  Activity: 21.5%
HepG2 [29]
  Activity: 23.4%
Tubulin (Homo sapiens) [30]
  inhibition: Tde
Tubulin (Homo sapiens) [31]
  Activity: Active
Tubulin (Homo sapiens) [32]
  Activity: Active
HepG2 [33]
  Activity: 4.85%
